Legend:
U2OS cells = assay: Compound toxicity comparison, LIVE/DEAD Cell Imaging Kit; assay type: cell-based, human; settings: 10 μM, 2 h, 16 h or 24 h
Method: Cytotoxicity of the three compounds was compared with Bay 11-7082 (Cayman, 10010266), an inhibitor of the NF-κB pathway at working concentrations of 1-10 μM, using the LIVE/DEAD Cell Imaging Kit (488/570) (Invitrogen, R37601). For each condition, 15,000 U2OS cells were seeded in 200 μL of growth medium in each well of 96-well plate 48 h before microscopy. Next, medium was changed to medium containing either DMSO, 10 μM of indicated compound, or 10 μM of Bay 11-7082 for the indicated duration (2 h, 16 h, or 24 h). Before imaging, medium was changed to phenol red-free FluoBrite DMEM (Gibco, A18967-01) containing 300 ng/mL of Hoechst 33342, and 1:10000 of both Live Green and Dead Red dyes of the LIVE/DEAD Cell Imaging Kit. Cells were incubated for 60 minutes and imaged on the Delta Vision Elite imaging system at 20× magnification with a […] objective (0.45NA; Olympus). Analysis was done using Cell Profiler to segment cells and quantify median nuclear intensity values. Further analysis was performed using custom scripts in MATLAB. Data from biological triplicates were plotted as the mean ± SD.

full length TRAF2 = target: T1, full length TRAF2 (Homo sapiens, UniProt Q12933); assay: Fluorescence-based thermal shift assay of TRAF2; assay type: binding; settings: 1 uM GST-TRAF2, melt curve 25-99° C.
T1 construct: dose-dependent stabilizing effect on full length TRAF2; purchased Rockland
T1 sequence (Q12933 1-501): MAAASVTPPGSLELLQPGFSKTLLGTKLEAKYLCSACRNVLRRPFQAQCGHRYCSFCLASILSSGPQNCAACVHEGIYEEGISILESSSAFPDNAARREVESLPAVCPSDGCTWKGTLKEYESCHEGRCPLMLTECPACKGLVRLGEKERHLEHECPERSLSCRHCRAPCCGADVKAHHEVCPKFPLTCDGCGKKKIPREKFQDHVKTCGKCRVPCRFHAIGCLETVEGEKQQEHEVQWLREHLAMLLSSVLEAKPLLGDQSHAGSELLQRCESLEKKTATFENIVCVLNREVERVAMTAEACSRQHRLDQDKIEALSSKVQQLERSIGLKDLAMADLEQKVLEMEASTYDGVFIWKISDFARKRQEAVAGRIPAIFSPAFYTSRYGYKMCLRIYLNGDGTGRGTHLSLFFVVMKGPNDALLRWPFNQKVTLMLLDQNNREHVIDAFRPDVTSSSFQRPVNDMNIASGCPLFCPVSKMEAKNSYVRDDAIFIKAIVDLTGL
Method: To test whether the compounds interact with TRAF2 in vitro, the thermal stability of purified TRAF2 in the presence of each compound was measured.
TRAF2—compound interactions were measured by fluorescence-based thermal shift using an Applied Biosystems ABI QuantStudio(TM) 6 Flex System. […] PCR plates were covered with optical seal, shaken, and centrifuged after protein and compounds were added. The instrument was programmed in the Melt Curve mode and the Standard speed run. The reporter was selected as Rox and None for the quencher. Each melt curve was programmed as follows: 25° C. for 2 min, followed by a 0.05° C. increase per second from 25° C. to 99° C., and finally 99° C. for 2min. Fluorescence intensity was collected continuously. In the Melt Curve Filter section, X4 (580 ±10)-M4 (623±14) was selected for the Excitation Filter-Emission Filter. The raw data was extracted in MS-Excel format.

IKKγ = assay: Western blot of IKKγ expression in CRISPR-modified U2OS cells; assay type: cell-based, human; settings: Actin-corrected band intensity
Method: U2OS cells (parental and expressing EGFP-RelA/IKKγ via CRISPR Knock-in) were cultured for 24 hrs in complete growth medium. After treatments, cells were lysed in SDS-based lysis buffer consisting of 120 mM Tris-Cl, pH 6.8, 4% SDS supplemented with protease and phosphatase inhibitors at 4° C. for 30 min. Protein extracts were clarified by centrifugation at 4° C. at 12,000×g for 10 min. Lysate protein levels were quantified by BCA assay (Pierce). Samples were separated by SDS-PAGE, 25 μg total protein per lane, then transferred to PVDF membranes. Blocking was done in 5% milk in TBS for 1 hour. Primary antibodies directed at RelA and β-actin (#4764 and #3700 respectively; Cell Signaling Technology), IKKγ and GAPDH (sc-8330 and sc25778 respectively; Santa Cruz) were diluted in 5% milk in TBS-T and incubated overnight at 4° C. Alexa 680/800-conjugated secondary antibodies (LICOR) were used in combination with an Odyssey (LI-COR) scanner for detection and quantification of band intensities.

[1] = test system: IL1-induced dynamics of nuclear NF-kB; assay: Live-cell imaging of IL1-induced nuclear FP-RelA (NF-kB) dynamics in U2OS cells; assay type: cell-based, human; settings: 10 μM compound, 100 ng/mL IL1
Method: Live cells were imaged in an environmentally controlled chamber (37° C., 5% CO2) on a DeltaVision Elite microscope equipped with a pco.edge sCMOS camera and an Insight solid-state illumination module (GE). U2OS cells expressing FP-RelA/IKKγ were seeded at a density of 25000 cells/well 24 hours prior to live-cell imaging experiments on no. 1.5 glass bottom 96 well imaging plates (Matriplate). For imaging of FP-RelA nuclear translocation, live-cells were pre-treated with DMSO or indicated concentrations of compounds for 2 hours before exposure to either 100 ng/ml recombinant human TNF (Peprotech) or 100 ng/ml recombinant human IL1β (Peprotech). Wide-field epifluorescence and DIC images were collected using a 20× […] objective (0.45NA; Olympus). […] Quantification of nuclear FP-RelA localization and the formation IKKγ puncta from flat-field and background corrected images was performed using customized scripts in Matlab and ImageJ.
For permutation tests, data from the TNF-only and the indicated experimental condition were combined and randomly distributed into ‘Permuted control’ and ‘Permuted experimental’ bins without replacement, preserving the size of the original control and experimental data sets. 10^6 permutations were performed and the difference between the means of permuted control and experimental data were calculated for each condition to generate a histogram. […]

[2] = target: T2, recombinant activated IKKβ (Homo sapiens, UniProt O14920); assay: In vitro IKKβ kinase assay (ADP-Glo); assay type: biochemical; settings: for IKKβ kinase activity: at 10-fold higher concentrations than used in cell-based experiments; for inhibitory activity over IKKβ kinase activity: at the concentrations used in this study
T2 construct: purchased Promega V4502
T2 sequence (O14920 1-756): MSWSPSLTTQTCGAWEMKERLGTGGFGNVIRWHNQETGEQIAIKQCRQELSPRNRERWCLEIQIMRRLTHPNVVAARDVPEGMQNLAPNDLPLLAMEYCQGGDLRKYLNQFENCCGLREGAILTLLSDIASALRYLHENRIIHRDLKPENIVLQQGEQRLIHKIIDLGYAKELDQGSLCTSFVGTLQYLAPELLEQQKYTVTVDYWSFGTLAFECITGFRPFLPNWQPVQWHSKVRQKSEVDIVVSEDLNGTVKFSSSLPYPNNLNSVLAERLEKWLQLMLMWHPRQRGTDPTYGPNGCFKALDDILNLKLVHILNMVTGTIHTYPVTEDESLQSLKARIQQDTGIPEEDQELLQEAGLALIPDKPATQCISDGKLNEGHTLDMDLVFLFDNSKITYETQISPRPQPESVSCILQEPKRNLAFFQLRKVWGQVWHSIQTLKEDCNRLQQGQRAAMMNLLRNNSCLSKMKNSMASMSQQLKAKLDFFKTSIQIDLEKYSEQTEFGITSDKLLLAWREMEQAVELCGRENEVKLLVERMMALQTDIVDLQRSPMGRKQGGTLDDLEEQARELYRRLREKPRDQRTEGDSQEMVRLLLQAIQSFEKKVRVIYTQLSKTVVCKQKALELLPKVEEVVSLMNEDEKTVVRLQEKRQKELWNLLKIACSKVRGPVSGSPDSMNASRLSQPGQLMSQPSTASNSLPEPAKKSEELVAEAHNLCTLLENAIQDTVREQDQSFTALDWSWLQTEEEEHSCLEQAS
Method: 1× kinase buffer A (40 mM Tris-HCl pH 7.4, 20 mM MgCl2, 0.1 mg/mL BSA, supplemented with 2 mM MnCl2, 2 mM DTT and 100 μM Sodium vanadate) was used to prepare all components of the reaction. All components were prepared in a 96-well plate and transferred to every other well of a 384-well opaque plate (Sigma-Aldrich, CLS3825-10EA) using a multichannel pipet. A 2.5× ATP/IKKtide substrate mix (62.5 μM ATP mixed with 0.5 μg/μL IKKtide) was prepared, and a 5× concentration of the indicated concentration of compounds in 0.5% DMSO, maintaining a final DMSO concentration of 0.1% in all reactions. […] The plate was briefly spun, and the reaction incubated at room temperature for 1 h. Next, 5 μL of ADP-Glo reagent were added to each well, spun and incubated for 40 minutes at room temperature. Finally, 10 μL of Kinase Detection Reagent were added to each well and incubated for 30 minutes at room temperature. Luminescence from each well was measured using an integration time of 500 ms in a M4 microplate reader (SpectraMax). Data from triplicate reactions were extracted and plotted.

[3] = test system: TNF-induced nuclear translocation of NF-kB; assay: Live-cell imaging of TNF-induced nuclear FP-RelA (NF-kB) translocation in single U2OS cells; assay type: cell-based, human; settings: for Maximum fold change (Max) of nuclear FP-RelA / area under the fold change curve (AUC) of nuclear FP-RelA: 10 μM compound pretreatment before addition of TNF; for potency in restricting the signaling network upstream of NF-kB activation: TNF-stimulated U2OS FP-RelA cells; for nuclear mobilization of NF-kB: U2OS FP-RelA cells pre-treated with compound before exposure to TNF
Method: Rep., 22:585-599 (2018)).
To quantify the compounds' effect on NF-kB dynamics, each single-cell trajectory was decomposed into a series of descriptors (FIG. 3c) that transmit information within the cell about extracellular cytokine concentrations (Zhang et al., Cell. Syst., 5:638-645 e635 (2017)).
(§1) Live cells were imaged in an environmentally controlled chamber (37° C., 5% CO2) on a DeltaVision Elite microscope equipped with a pco.edge sCMOS camera and an Insight solid-state illumination module (GE). U2OS cells expressing FP-RelA/IKKγ were seeded at a density of 25000 cells/well 24 hours prior to live-cell imaging experiments on no. 1.5 glass bottom 96 well imaging plates (Matriplate). For imaging of FP-RelA nuclear translocation, live-cells were pre-treated with DMSO or indicated concentrations of compounds for 2 hours before exposure to either 100 ng/ml recombinant human TNF (Peprotech) or 100 ng/ml recombinant human IL1β (Peprotech). Wide-field epifluorescence and DIC images were collected using a 20× […] objective (0.45NA; Olympus). Cells were imaged for at least 30 minutes prior to addition of compounds. For detection of IKKγ puncta, live-cells were pre-treated with DMSO or indicated concentration of compounds for 2 hours before exposure to 100 ng/ml TNF. Wide-field epifluorescence and DIC images were collected using a 60× […] objective. […] Time-lapse images were collected over at least 4 fields per condition with a temporal resolution of 5 minutes per frame. Quantification of nuclear FP-RelA localization and the formation IKKγ puncta from flat-field and background corrected images was performed using customized scripts in Matlab and ImageJ.
For permutation tests, data from the TNF-only and the indicated experimental condition were combined and randomly distributed into ‘Permuted control’ and ‘Permuted experimental’ bins without replacement, preserving the size of the original control and experimental data sets. 10^6 permutations were performed and the difference between the means of permuted control and experimental data were calculated for each condition to generate a histogram. Two-tailed p-values were determined by computing the fraction of permuted data sets where Δmeanpermuted≥Δmeanunpermuted (FIGS. 12, 13, and 15).

mature TNFR1 complex = assay: Live-cell imaging of FP-IKK puncta in TNF-stimulated U2OS cells; assay type: cell-based, human; settings: pretreated with compound before 100 ng/mL TNF
Method: as §1

Row | SMILES | cytotoxicity (fraction of surviving cells) (U2OS cells) | dose-dependent stabilizing effect on full length TRAF2 (thermal shift) (full length TRAF2) | overall expression level of IKKγ (IKKγ) | IL1-induced dynamics of nuclear NF-kB vs IL1-only control cells [1] | IKKβ kinase activity [2] | inhibitory activity over IKKβ kinase activity [2] | Maximum fold change (Max) of nuclear FP-RelA [3] | area under the fold change curve (AUC) of nuclear FP-RelA [3] | potency in restricting the signaling network upstream of NF-kB activation [3] | nuclear mobilization of NF-kB [3] | number of TNF-induced FP-IKK puncta (mature TNFR1 complex)
1 | CC(C)CN1CCN(C(=O)COC(=O)c2ccc(S(C)(=O)=O)c([N+](=O)[O-])c2)CC1 [Compound 2] | low cytotoxicity | subtle | reduced | indistinguishable | not inhibited | no direct inhibitory activity | significantly less | significantly less | low micromolar potency | reduced with increasing concentration | greatly reduced
2 | CCC(OC(=O)c1ccc(S(C)(=O)=O)c([N+](=O)[O-])c1)C(=O)NC1C2CC3CC(C2)CC1C3 (stereo not shown) [Compound 3] | low cytotoxicity | moderate | reduced | indistinguishable | not inhibited | no direct inhibitory activity | significantly less | significantly less | low micromolar potency | reduced with increasing concentration | greatly reduced
